Results taken from ChEMBL document CHEMBL1201862, “PubChem BioAssay data set” (2004).
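Step 1: Grow cells in 96-well plates. Step 2: Expose to compound for 48 hours at 5 concentrations. Step 3: Interpolate endpoints linearly; if unreached, use highest concentration. GI50 is the concentration that inhibits growth by half.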 Calls of active or inactive are those of the source. Rule as the data show it: active = GI50 up to about 1.1 µM and inactive = higher.

Legend:
Assay in all cases: inhibition of tumour cell growth, NCI panel, 48 h
A549 = test system: A549
DU-145 = test system: DU-145
EKVX = test system: EKVX
HCT-116 = test system: HCT-116
HCT-15 = test system: HCT-15
HOP-92 = test system: HOP-92
LXFL 529 = test system: LXFL 529
M14 = test system: M14
OVCAR-4 = test system: OVCAR-4
SF-539 = test system: SF-539
SK-MEL-28 = test system: SK-MEL-28
SK-MEL-2 = test system: SK-MEL-2
SK-MEL-5 = test system: SK-MEL-5
SK-OV-3 = test system: SK-OV-3
SN12C = test system: SN12C
UACC-62 = test system: UACC-62

| Compound | GI50 (A549) | GI50 (DU-145) | GI50 (EKVX) | GI50 (HCT-116) | GI50 (HCT-15) [µM] | GI50 (HOP-92) | GI50 (LXFL 529) | GI50 (M14) | GI50 (OVCAR-4) | GI50 (SF-539) | GI50 (SK-MEL-28) | GI50 (SK-MEL-2) | GI50 (SK-MEL-5) | GI50 (SK-OV-3) | GI50 (SN12C) | GI50 (UACC-62) |
| --- | --- | --- | --- | --- | --- | --- | --- | --- | --- | --- | --- | --- | --- | --- | --- | --- |
| CCOP(=O)(OCC)/C(C#N)=C\c1ccc(OC(C)=O)cc1 | > 100 µM (inactive) | > 100 µM (inactive) | > 100 µM (inactive) | > 100 µM (inactive) | > 100 | > 100 µM (inactive) | > 100 µM (inactive) | > 100 µM (inactive) | > 100 µM (inactive) | > 100 µM (inactive) | > 100 µM (inactive) | > 100 µM (inactive) | > 100 µM (inactive) | > 100 µM (inactive) | > 100 µM (inactive) | > 100 µM (inactive) |
| COC(=O)c1c(-c2ccccc2)sc(-c2cccc3ccccc23)c1C(=O)OC | > 100 µM (inactive) |  | > 100 µM (inactive) | > 100 µM (inactive) | > 100 | > 100 µM (inactive) | > 100 µM (inactive) | > 100 µM (inactive) | 84.7 µM (inactive) | > 100 µM (inactive) | > 100 µM (inactive) | > 100 µM (inactive) | > 100 µM (inactive) | > 100 µM (inactive) | > 100 µM (inactive) | > 100 µM (inactive) |
| COc1nc2nccc-2c2occn12 | > 100 µM (inactive) |  | > 100 µM (inactive) | > 100 µM (inactive) | > 100 | > 100 µM (inactive) | > 100 µM (inactive) | > 100 µM (inactive) | > 100 µM (inactive) | > 100 µM (inactive) | > 100 µM (inactive) | > 100 µM (inactive) | > 100 µM (inactive) | > 100 µM (inactive) | > 100 µM (inactive) | > 100 µM (inactive) |
| Cc1c(/C=N/NC(=O)c2cc(Br)cc(Br)c2O)c(=O)n(-c2ccccc2)n1C | > 100 µM (inactive) |  | > 100 µM (inactive) | 56.4 µM (inactive) | 39.1 | 30.1 µM (inactive) | 75.9 µM (inactive) | 36.9 µM (inactive) | > 100 µM (inactive) | 47 µM (inactive) | 20.8 µM (inactive) | > 100 µM (inactive) | 51.6 µM (inactive) | > 100 µM (inactive) | 69.7 µM (inactive) | 19.6 µM (inactive) |
